The record followed here is a melting point compilation (Tetko et al.; mined from patent text by program, amines drawn as free bases though some values may be those of a salt).

The term melting point denotes the temperature, or range, at which the solid turns liquid.

The compound `CCOc1cc2ncc(C#N)c(Nc3ccc4c(C)cc(=O)oc4c3)c2cc1OCC` gave a melting point of 282 to 284 °C. Then `Cc1cc(CC(=O)O)cc(Cc2nc3c(F)c(F)cc(F)c3s2)c1`, with 127 to 129 °C; and `CCOC(=O)Cc1ccc(NC(=O)C(COC2CCCCO2)NS(=O)(=O)c2ccc(Cl)c([N+](=O)[O-])c2)cc1` (racemic), with 108 to 111 °C; and `c1cnc2ncncc2c1`, with 249 to 252 °C.

On to `CCN(CC)CCNc1ccc(-c2ccnc(Nc3cc(OC)c(OC)c(OC)c3)n2)cn1`, for which the melting point stood at 67 °C. Then `CCCCCCCCCCCC(=O)OCc1ccccc1-c1nc(-c2cccc(OC)c2)n[nH]1`, with 45 °C. For `CC(NO)c1ccc2c(c1)Sc1cc(Cl)ccc1O2` (stereo not drawn) the value was 103 to 105 °C.

In turn, `CCOc1nc(NCc2ccco2)nc(Nc2cccc(CN3CCOCC3)c2)n1` returned a melting point of 69 to 71 °C. In turn, `O=S(=O)(Nc1ccc2c(OCc3ccc(-c4cccc(Cl)c4)cc3)cccc2c1)C(F)(F)F` displayed a melting point of 170 to 171 °C. For `N=C(N)NCCOc1ccc2c(c1)NC(=O)C(CCC(=O)O)C2` (stereo not drawn) the value was 193 to 196 °C; for `NS(=O)(=O)c1ccc(-c2cc(-c3nc(-c4ccc(F)cc4)cc(C(F)(F)F)n3)ccn2)s1`, 282 °C; for `Cc1cc(NC(c2ccccc2)(c2ccccc2)c2ccccc2)no1`, 196 to 199 °C. With `CC(C)=CC(=O)N[C@H]1CC[C@H](CCN2CCC(c3cccc4c3CCO4)CC2)CC1`, the melting point came to 177 °C.

For the compound `Cc1c(C)c2c(c(C)c1O)CCC(C)(CCc1ccccc1)O2` (stereo not drawn), the melting point was in the range of 96 to 98 °C. Then `COc1nc2cc(Cl)c(Cl)c(N(S(C)(=O)=O)S(C)(=O)=O)c2nc1OC`, with 240 to 244 °C; and `CN(C(=O)OC(C)(C)C)c1cnc(-c2ccc(Cl)nc2)s1`, with 167 to 170 °C. Then `CCNC(=O)CCCNC(=O)CCCNC(=O)OC(C)(C)C`, with 134 to 135 °C; and `CC(C)C(NC(=O)OC(C)(C)C)C(=O)OCC1OC(n2cc(C=CBr)c(=O)[nH]c2=O)CC1Cl` (stereo not drawn), with 75 to 76 °C; and `CCC1COc2ccccc2C(=O)C1=O` (stereo not drawn), with 63 to 66 °C. For `CC(C)(C)C(=O)C(Oc1ccc(Cl)cc1)c1cccnc1` (stereo not drawn) the value was 50 °C; for `CCc1nc2c(cnn2CC)c(NC2CCOCC2)c1CNC(=O)c1cccc(C(=O)NCc2ccc(F)c(-c3cccc(CN4CCCNCC4)c3)c2)c1`, 145 to 148 °C; for `COc1cccc(OC)c1CN1CC2CCCN2c2ccccc21` (stereo not drawn), 124 to 125 °C. `CC(C)(C)CCNC(=O)c1coc(C2C3CCC(O3)C2Cc2ccccc2CCC(=O)O)n1` (stereo not drawn) yielded a melting point of 160 to 162 °C. For `CCCOc1ccc(S(=O)(=O)N2CCN(Cc3ccccc3)CC2)cc1-c1nc2cc(Cl)c([N+](=O)[O-])cc2c(=O)[nH]1` the value was 198 to 200 °C; for `O=c1[nH]c2ccccc2n1CCCN1CCC(c2nsc3ccccc23)CC1`, 185 to 187 °C; for `CCCCCCCCCCOc1ccc2cc(C#CC(C)OC(=O)CC)ccc2c1` (stereo not drawn), 74 to 75 °C. For `Cc1cn(-c2cc(Br)c(N)c(C(F)(F)F)c2)c(C)n1` the value was 149 °C.

As to `Fc1ccccc1-c1cccc2[nH]c3c(c12)CCN(Cc1ccccc1)CC3`, the melting point is 157 to 159 °C. Then `Cn1c2ccccc2c2cc(C=O)c3ccccc3c21`, with 188 to 192 °C. Then `CCCc1c(OCCCS(=O)(=O)c2ccc(CC(=O)OC)c(Cl)c2Cl)ccc(C(C)=O)c1O`, with 115 to 118 °C; and `COC(=O)NC1=NC(c2cccc(O)c2)CN1` (stereo not drawn), with 180 to 183 °C. Then `NNC(=O)c1ccc2c(c1)C(=C(Cl)Cl)OC(C(Cl)(Cl)Cl)O2` (stereo not drawn), with 182 to 183 °C; and `O=c1ccnc(NCCCN(Cc2ccccc2)c2ccccn2)[nH]1`, with 162 to 163 °C. For `COC(=O)CN(C)CCNC(=O)c1nc(Cl)c(N)nc1N`, the melting point lay in the range of 132 to 134 °C. For `CC(C)OCc1cnc2c(NC(=O)c3c(Cl)cccc3Cl)cccc2c1Cl` the value was 117 to 118 °C. In the case of `O=CN(O)C(CN1CCOCC1)CS(=O)(=O)c1ccccc1Oc1ccc(OC(F)(F)F)cc1` (stereo not drawn), the melting point is 161 to 163 °C. In turn, `CCCS(=O)c1cc(O)ccc1C` (stereo not drawn) yielded a melting point of 84 to 85 °C. Then `CC1CC(=O)NN=C1c1ccc(NN=C(C#N)C#N)cc1` (single isomer, unassigned; (+)), with 210 to 214 °C; and `COc1ccc(Sc2[nH]c3cccc4c3c2CC2C4C=C(C)CN2C)cc1` (stereo not drawn), with above 250 °C; and `CN(C)C(=O)NS(=O)(=O)c1ccccc1OC(Cl)=CCl`, with 218 to 220 °C. For `COC(=O)c1ccc(NC(C)=O)c2c1OCCC2` the value was 175 °C; for `COC(=O)c1ccc(NC(=O)c2cc(C(C)C)c(C(C)C)o2)cc1O`, 156 to 157 °C; for `COc1ccc2c(c1)C(O)=C(C(=O)Nc1cncc(Cl)n1)N(C)S2(=O)=O`, 289 to 291 °C. Then `O=[N+]([O-])c1cc(F)c(N2CCNCC2)cc1Cl`, with 91.5 °C. `N#Cc1cccc(C2SC[C@@H](C(=O)O)N2C(=O)CCCCCC(=O)N2C(c3cccc(C#N)c3)SC[C@H]2C(=O)O)c1` (stereo partly drawn): the melting point was 105 to 112 °C. In the case of `Cc1c(OCC(F)(F)F)ccnc1CSc1nc2ccccc2n1NCCCO`, the melting point fell in the range of 113 to 114 °C. Then `Oc1c(CN2CCOCC2)ncc2c1COC2c1ccccc1` (stereo not drawn), with 172 °C; and `CCOC(=O)C=Cc1cnc(C(C)(C)C)nc1`, with 43 to 45 °C. Then `[O-][N+]1=C(c2ccccc2Cl)c2cc(Cl)ccc2C=CC1`, with 196 to 197 °C; and `CCCC1C=C2NC(=O)CC[C@]2(C)[C@H]2CC[C@]3(C)[C@@H]([C@H](C)CCCC(C)C)CC[C@H]3[C@H]12` (stereo partly drawn), with 91 to 94 °C; and `c1ccc2c(c1)CCN(Cc1n[nH]c3ccccc13)C2`, with 151 to 152 °C.

`Cc1nc2c(Br)cc(Br)cn2c1C` registered a melting point above 90 °C. Then `Nc1ncnc2c1c(-c1cccc(O)c1)nn2Cc1oc2ccccc2c(=O)c1-c1ccccc1`, with 154 to 158 °C; and `CCC12CCC3=C(CCc4cc(O)ccc43)C1=CCC2=O` (stereo not drawn), with 153 to 156 °C. For `O=C(O)CCc1oc(N2CCCCC2)nc1-c1ccc(Cl)cc1` the value was 185 to 186 °C; for `CCCC(=O)c1ccc(OC)c(C(=O)Cl)c1`, 65 °C.

Turning to `Cc1nn(-c2c(Cl)cc(C(F)(F)F)cc2Cl)nc1C=NC(C#N)=C(N)C#N`, the melting point is 238 to 239 °C. `O=c1cc2c(nn1-c1ccc(Cl)cc1)-c1cc(Br)sc1CCC2` showed a melting point of 143 to 144 °C. For `CCOC(=O)c1cc(Cl)c2[nH]ncc2n1` the value was 276 to 279 °C.

For the compound `CCCCCCCCCCCCCCCCCCNC(=O)NCCCCCCCCN`, the melting point lay in the range of 120 to 145 °C. Then `CCOC(=O)C1C(=O)CC(C)(O)C(C(=O)OCC)C1c1ccc2c(C)c(C)oc2c1` (stereo not drawn), with 183 to 185 °C. Then `CN1C(=O)N2C(=NC1(C)C)N(C(=O)Nc1ccc(Cl)c(Cl)c1)c1ccccc12`, with 198 to 200 °C.

`O=C(Nc1ccc(-c2c[nH]c(=O)cn2)cc1)c1ccc([N+](=O)[O-])cc1` displayed a melting point of 298 to 300 °C.

`NC(=O)C(=O)NC(C(=O)O)c1ccco1` (stereo not drawn) had a melting point of 174 °C.

Regarding `CC(=O)N1CCOc2ccc(C3=NNC(=O)CC3C)cc21` (stereo not drawn), the melting point was 186 °C. Then `CCC(Cn1cncn1)(C(=O)O)c1ccc(Cl)cc1Cl` (stereo not drawn), with 206 to 208 °C; and `Cc1ccc2c(=O)nc(-c3ccccn3)sc2c1`, with 225 °C.

With `Cc1cc(-c2nnn(C)n2)cc(C)c1OCCCC(N)=O`, the melting point is 155 to 156 °C. `C#CCCCCn1ncc2c(N)c(C(=O)OCC)c(C)nc21` displayed a melting point of 63 to 65 °C. Then `CCCCCc1ccc(C(N)C(=O)O)[nH]1` (stereo not drawn), with 190 to 195 °C. Take `C#CCN1C(=O)COc2cc(F)c(NC(=O)C3CCCN3C(=O)OCc3ccccc3)cc21` (stereo not drawn): the melting point fell in the range of 72 to 74 °C. For `CC(C)C(=O)CC1NC(=O)c2ccsc2-n2cccc21` (stereo not drawn) the value was 160 °C.

For `CC1(C)CC(=O)C(Cl)(Cl)C(Cl)C1Br` (stereo not drawn), the melting point was 117 °C. Then `Cc1c(C)n2nnnc2c2nc(C)n(CCNS(C)(=O)=O)c12`, with above 250 °C; and `O=C(O)c1cn(C2CC2)c2nc(N3CCC(c4ccccn4)C3)c(F)cc2c1=O` (stereo not drawn), with 203 to 204 °C; and `Cc1cccnc1-c1ccc2ccnc(N)c2n1`, with 170 to 171 °C. Then `CCCn1nc(C(C)C)c(C(=O)OCc2cccc(C(=O)c3ccccc3)c2)c1Cc1ccc(-c2ccccc2S(=O)(=O)NC(=O)OC(C)(C)C)c(F)c1`, with 55 to 59 °C; and `CCCCCCCN(CCOCCSc1nc(-c2ccc(OC)cc2)c(-c2ccc(OC)cc2)[nH]1)C(=O)NC(C)C`, with 85 to 87 °C; and `CON1C=C2N=NC3=C(N2C1)N(c1cc(Cl)ccc1Cl)CC(C)=C3`, with 159 to 162 °C. Then `CCOC(=O)C1=C(C)Nc2ccccc2NC1c1cccc([N+](=O)[O-])c1` (stereo not drawn), with 148 to 150 °C; and `COC(=O)Cn1c(=S)sc2ccccc21`, with 127 to 128 °C; and `Cc1oc(-c2ccco2)nc1COc1ccc(COc2ncccc2C#N)cc1`, with 135 to 136 °C. Compound `CN(C)C(=O)C(C)(c1ccccc1)n1ccc(-c2ccccc2)n1` (stereo not drawn) displayed a melting point of 129 to 132 °C. Then `CC(CC(C)C)=Nc1cc2c(cc1F)OCC(=O)N2`, with 113 to 115 °C.

Compound `O=C1C[C@@H](O)C[C@H](CCc2c(Cl)cc(Cl)c3ccc(Cl)cc23)O1` (relative stereo) came in with a melting point of 111 to 115 °C.

On to `CC1(C)Oc2ccc(-c3c(NCCO)c(=O)c3=O)cc2[C@@H](N2Cc3ccccc3C2=O)[C@@H]1O` (relative stereo), for which the melting point lay in the range of 205 to 215 °C. For `CCOc1c(OC)cc(N)cc1OC` the value was 88 to 89 °C; for `O=C1[C@H](O)CCN1CC#CCN1CCCC1`, 81 to 85 °C.
